Source: EP2951180B1, “2,6,7,8 SUBSTITUTED PURINES AS HDM2 INHIBITORS” (Merck Sharp & Dohme Corp., priority 2013, dated 2014)

Target: T1, HDM2 (Homo sapiens, UniProt Q00987)
T1 construct: Thioredoxin (N); made in house; host or cells: E. coli strain BL21(DE3)Rosetta
Experiment: FRET assay (HDM2 inhibition; method not described in this part)
Assay type: binding

T1 sequence (Q00987 17-125): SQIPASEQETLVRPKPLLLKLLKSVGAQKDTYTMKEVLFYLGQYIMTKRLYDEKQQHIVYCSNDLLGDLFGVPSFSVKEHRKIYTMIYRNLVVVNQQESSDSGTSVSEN

Compound	IC50 (Table 1)	IC50 (Table 2)	also measured
C[C@@H](Nc1nc(C(=O)O)nc2nc(-c3cccc(C(F)(F)F)n3)n(Cc3ccc(C(F)(F)F)cc3)c12)C1CCC1 [Example 1.122, 6-{[(1R)-1-cyclobutylethyl]amino}-7-[4-(trifluoromethyl)benzyl]-8-[6-(trifluoromethyl)pyridin-2-yl]-7H-purine-2-carboxylic acid]	21.2 nM		
C[C@@H](Nc1nc(C(=O)O)nc2nc(-c3cc(OC4CCC4)ccn3)n(Cc3ccc(C(F)(F)F)cc3)c12)C1CCC1 [Example 1.45, 6-{[(1R)-1-cyclobutylethyl]amino}-8-[4-(cyclobutyloxy)pyridin-2-yl]-7-[4-(trifluoromethyl)benzyl]-7H-purine-2-carboxylic acid]	50.8 nM		
COc1ccnc(-c2nc3nc(C(=O)O)nc(N[C@H](C)C4CCC4)c3n2Cc2ccc(C(F)(F)F)cc2)c1 [Example 1.67, 6-{[(1R)-1-cyclobutylethyl]amino}-8-(4-methoxypyridin-2-yl)-7-[4-(trifluoromethyl)benzyl]-7H-purine-2-carboxylic acid]	14.2 nM		
Cc1noc(C)c1-c1nc2nc(C(=O)O)nc(N[C@H](C)C3CCC3)c2n1Cc1ccc(C(F)(F)F)cc1 [Example 2.84, 6-{[(1R)-1-cyclobutylethyl]amino} -8-(3,5-dimethylisoxazol-4-yl)-7-[4-(trifluoromethyl)benzyl] - 7H-purine-2-carboxylic acid]		79.4 nM	
Cc1cc(-c2nc3nc(C(=O)O)nc(N[C@H](C)C4CCC4)c3n2Cc2ccc(C(F)(F)F)cc2)ccc1F [Example 1.137, 6-{[(1R)-1-cyclobutylethyl]amino}-8-(4-fluoro-3-methylphenyl)-7-[4-(trifluoromethyl)benzyl]-7H-purine-2-carboxylic acid]	49.7 nM		
Cc1ccc(C)c(-c2nc3nc(C(=O)O)nc(N[C@H](C)C4CCC4)c3n2Cc2ccc(Cl)cc2)c1 [Example 4.2, (R)-7-(4-chlorobenzyl)-6-((1-cyclobutylethyl)amino)-8-(2,5-dimethylphenyl)-7H-purine-2-carboxylic acid]			IC50 (Table 4): 40.4 nM
Cc1cc2ncccc2cc1-c1nc2nc(C(=O)O)nc(N[C@H](C)C3CC3)c2n1Cc1ccc(C(F)(F)F)cc1 [Example 1.25, 6-{[(1R)-1-cyclopropylethyl]amino} -8-(7-methylquinolin-6-yl)-7-[4-(trifluoromethyl)benzyl]-7H-purine-2-carboxylic acid]	1070 nM		
C[C@@H](Nc1nc(C(=O)O)nc2nc(-c3cccc(C(F)(F)F)c3)n(Cc3ccc(C(F)(F)F)cc3)c12)C1CCC1 [Example 2.38, 6-{[(1R)-1-cyclobutylethyl]amino}-7-[4-(trifluoromethyl)benzyl]-8-[3-(trifluoromethyl)phenyl]-7H-purine-2-carboxylic acid]		11.2 nM	
C[C@@H](Nc1nc(C(=O)O)nc2nc(-c3ccc(N(C)C)cc3)n(Cc3ccc(C(F)(F)F)cc3)c12)C1CCC1 [Example 1.113, 6-{[(1R)-1-cyclobutylethyl]amino}-8-[4-(dimethylamino)phenyl]-7-[4-(trifluoromethyl)benzyl]-7H-purine-2-carboxylic acid]	716 nM		
C[C@@H](Nc1nc(C(=O)O)nc2nc(-c3cccc(OC(F)(F)F)c3)n(Cc3ccc(C(F)(F)F)cc3)c12)C1CC1 [Example 2.26, 6-{[(1R)-1-cyclopropylethyl]amino}-8-[3-(trifluoromethoxy)phenyl]-7-[4-(trifluoromethyl)benzyl]-7H-purine-2-carboxylic acid]		550 nM	
COc1ccc(C)nc1-c1nc2nc(C(=O)O)nc(N[C@H](C)C3CCC3)c2n1Cc1ccc(C(F)(F)F)cc1 [Example 1.23, 6-{[(1R)-1-cyclobutylethyl]amino}-8-(3-methoxy-6-methylpyridin-2-yl)-7-[4-(trifluoromethyl)benzyl]-7H-purine-2-carboxylic acid]	13.1 nM		
C[C@@H](Nc1nc(C(=O)O)nc2nc(-c3ccc(Cl)cc3)n(Cc3ccc(Cl)cc3)c12)C1CC1 [Example 2.9, 7-(4-chlorobenzyl)-8-(4-chlorophenyl)-6-{[(1R)-1-cyclopropylethyl]amino}-7H-purine-2-carboxylic acid]		43.8 nM	
CCOc1ccc(C(C)C)cc1-c1nc2nc(C(=O)O)nc(N[C@H](C)C3CCC3)c2n1Cc1ccc(C(F)(F)F)cc1 [Example 1.12, (R)-6-((1-cyclobutylethyl)amino)-8-(2-ethoxy-5-isopropylphenyl)-7-(4-(trifluoromethyl)benzyl)-7H-purine-2-carboxylic acid]	29.4 nM		
C[C@@H](Nc1nc(C(=O)O)nc2nc(-c3ccc4c(c3)CCC4)n(Cc3ccc(C(F)(F)F)cc3)c12)C1CC1 [Example 2.74, 6-{[(1R)-1-cyclopropylethyl]amino}-8-(2,3-dihydro-1H-inden-5-yl)-7-[4-(trifluoromethyl)benzyl]-7H-purine-2-carboxylic acid]		205 nM	
COc1ccc(-c2nc3nc(C(=O)O)nc(N[C@H](C)C4CC4)c3n2Cc2ccc(C(F)(F)F)cc2)cc1 [Example 2.21, 6-{[(1R)-1-cyclopropylethyl]amino}-8-(4-methoxyphenyl)-7-[4-(trifluoromethyl)benzyl]-7H-purine-2-carboxylic acid]		253 nM	
COc1ccc(-c2nc3nc(C(=O)O)nc(N[C@H](C)C4CCC4)c3n2Cc2ccc(C(F)(F)F)cc2)c(F)c1 [Example 1.136, 6-{[(1R)-1-cyclobutylethyl]amino}-8-(2-fluoro-4-methoxyphenyl)-7-[4-(trifluoromethyl)benzyl]-7H-purine-2-carboxylic acid]	125 nM		
CCOc1cccc(-c2nc3nc(C(=O)O)nc(N[C@H](C)C4CC4)c3n2Cc2ccc(C(F)(F)F)cc2)c1 [Example 2.15, 6-{[(1R)-1-cyclopropylethyl]amino}-8-(3-ethoxyphenyl)-7-[4-(trifluoromethyl)benzyl]-7H-purine-2-carboxylic acid]		304 nM	
Cc1c(C(C)C)ccnc1-c1nc2nc(C(=O)O)nc(N[C@H](C)C3CCC3)c2n1Cc1ccc(OC(F)(F)F)c(F)c1 [Example 1.91, 6-{[(1R)-1-cyclobutylethyl]amino}-7-[3-fluoro-4-(trifluoromethoxy)benzyl]-8-[3-methyl-4-(1-methylethyl)pyridin-2-yl]-7H-purine-2-carboxylic acid]	22.3 nM		
CC(C)Cc1ccnc(-c2nc3nc(C(=O)O)nc(N[C@H](C)C4CCC4)c3n2Cc2ccc(C(F)(F)F)cc2)c1 [Example 1.85, 6-{[(1R)-1-cyclobutylethyl]amino}-8-[4-(2-methylpropyl)pyridin-2-yl]-7-[4-(trifluoromethyl)benzyl]-7H-purine-2-carboxylic acid]	9.69 nM		
Cc1cnc(-c2nc3nc(C(=O)O)nc(N[C@H](C)C4CCC4)c3n2Cc2ccc(OC(F)(F)F)c(F)c2)cc1C(C)C [Example 1.90, 6-{[(1R)-1-cyclobutylethyl]amino}-7-[3-fluoro-4-(trifluoromethoxy)benzyl]-8-[5-methyl-4-(1-methylethyl)pyridin-2-yl]-7H-purine-2-carboxylic acid]	24.7 nM		
C[C@@H](Nc1nc(C(=O)O)nc2nc(-c3cccc(Cl)c3)n(Cc3ccc(C(F)(F)F)cc3)c12)C1CC1 [Example 2.22, 8-(3-chlorophenyl)-6-{[(1R)-1-cyclopropylethyl]amino}-7-[4-(trifluoromethyl)benzyl]-7H-purine-2-carboxylic acid]		124 nM	
C[C@@H](Nc1nc(C(=O)O)nc2nc(-c3ccc4nccnc4c3)n(Cc3ccc(C(F)(F)F)cc3)c12)C1CCC1 [Example 1.106, 6-{[(1R)-1-cyclobutylethyl]amino}-8-quinoxalin-6-yl-7-[4-(trifluoromethyl)benzyl]-7H-purine-2-carboxylic acid]	23.5 nM		
CCOc1ccnc(-c2nc3nc(C(=O)O)nc(N[C@H](C)C4CCC4)c3n2Cc2ccc(C(F)(F)F)cc2)c1 [Example 1.43, 6-{[(1R)-1-cyclobutylethyl]amino}-8-(4-ethoxypyridin-2-yl)-7-[4-(trifluoromethyl)benzyl] - 7H-purine-2-carboxylic acid]	11.8 nM		
Cc1cc(C)cc(-c2nc3nc(C(=O)O)nc(N[C@H](C)C4CCC4)c3n2Cc2ccc(C(F)(F)F)cc2)c1 [Example 1.131, 6-{[(1R)-1-cyclobutylethyl]amino}-8-(3,5-dimethylphenyl)-7-[4-(trifluoromethyl)benzyl]-7H-purine-2-carboxylic acid]	369 nM		
C[C@@H](Nc1nc(C(=O)O)nc2nc(-c3cc(C4CCC4)ccn3)n(Cc3ccc(C(F)(F)F)c(F)c3)c12)C1CCC1 [Example 1.78, 6-{[(1R)-1-cyclobutylethyl]amino}-8-(4-cyclobutylpyridin-2-yl)-7-[3-fluoro-4-(trifluoromethyl)benzyl]-7H-purine-2-carboxylic acid]	9.25 nM		
CCc1ccc(C)cc1-c1nc2nc(C(=O)O)nc(N[C@H](C)C3CCC3)c2n1Cc1ccc(C(F)(F)F)cc1 [Example 2.82, 6-{[(1R)-1-cyclobutylethyl]amino}-8-(2-ethyl-5-methylphenyl)-7-[4-(trifluoromethyl)benzyl]-7H-purine-2-carboxylic acid]		13.6 nM	
C[C@@H](Nc1nc(C(=O)O)nc2nc(-c3nccc4ccccc34)n(Cc3ccc(C(F)(F)F)cc3)c12)C1CCC1 [Example 1.73, 6-{[(1R)-1-cyclobutylethyl]amino}-8-isoquinolin-1-yl-7-[4-(trifluoromethyl)benzyl]-7H-purine-2-carboxylic acid]	27.3 nM		
C[C@@H](Nc1nc(C(=O)O)nc2nc(-c3ccc4ncccc4c3)n(Cc3ccc(C(F)(F)F)cc3)c12)C1CC1 [Example 2.69, 6-{[(1R)-1-cyclopropylethyl]amino}-8-quinolin-6-yl-7-[4-(trifluoromethyl)benzyl]-7H-purine-2-carboxylic acid]		296 nM	
C[C@@H](Nc1nc(C(=O)O)nc2nc(-c3cc(C4CC4)ccn3)n(Cc3ccc(C(F)(F)F)c(F)c3)c12)C1CCC1 [Example 1.77, 6-{[(1R)-1-cyclobutylethyl]amino}-8-(4-cyclopropylpyridin-2-yl)-7-[3-fluoro-4-(trifluoromethyl)benzyl]-7H-purine-2-carboxylic acid]	20 nM		
C[C@@H](Nc1nc(C(=O)O)nc2nc(-c3ccc(C(C)(C)C)cc3)n(Cc3ccc(C(F)(F)F)cc3)c12)C1CC1 [Example 2.32, 8-(4-tert-butylphenyl)-6-{[(1R)-1-cyclopropylethyl]amino}-7-[4-(trifluoromethyl)benzyl]-7H-purine-2-carboxylic acid]		1950 nM	
